Source: ChEMBL document CHEMBL4840341, “Voatriafricanines A and B, Trimeric Vobasine-Aspidosperma-Aspidosperma Alkaloids from Voacanga africana” (J Nat Prod, 2021)
Values after ≈ are worked out from the molar mass of the structure shown.

Columns and labels:
Format in all cases: functional
[1] = test system: Mycolicibacterium smegmatis; experiment: Antimycobacterial activity against Mycobacterium smegmatis CIP7326 assessed as inhibition of mycobacterial growth incubated for 24 hrs by broth microdilution method
[2] = Antimycobacterial activity against Mycobacterium abscessus subsp. bolletii assessed as inhibition of mycobacterial growth incubated for 2 to 3 days by broth microdilution method; conditions: Mycobacteroides abscessus; time 2-3 day
Pseudomonas aeruginosa = experiment: Antibacterial activity against Pseudomonas aeruginosa ATCC 15442 assessed as inhibition of bacterial growth incubated for 24 hrs by broth microdilution method

Row | Compound | MIC [1] [µg/mL] | MIC [2] [µg/mL] | MIC (Pseudomonas aeruginosa) [µg/mL]
1 | CO[C@H]1/C=C/O[C@@]2(C)Oc3c(C)c(O)c4c(O)c(c(/C=N/N5CCN(C)CC5)c(O)c4c3C2=O)NC(=O)/C(C)=C\C=C\[C@H](C)[C@H](O)[C@@H](C)[C@@H](O)[C@@H](C)[C@H](OC(C)=O)[C@@H]1C [RIFAMPIN] | 0.1 (≈ 0.122 µM) | 0.1 (≈ 0.122 µM) | –
2 | cetrimide | – | – | 0.1
